Experimental data published in patent publication US20040259875A1, “Amine derivatives” (priority 2001, published 2004).

SMILES	melting point
Cc1ccc(NC(=O)Nc2c(Cl)cc(Cl)c3ccc(O)cc23)cc1F [Example 4-42]	261 to 264 °C (dec.)
Cc1ccc(NC(=O)Nc2ccc(Cl)c(C(F)(F)F)c2)c2cc(O)ccc12 [Example 1-80]	237 to 238 °C
COc1cccc(NC(=O)Nc2c(Br)cc(Br)c3ccc(O)cc23)c1 [Example 1-16]	213 to 216 °C
O=C(Nc1ccc(Cl)c(C(F)(F)F)c1)Nc1c(Cl)cc(Cl)c2ccc(O)cc12 [Example 1-9]	255 °C (dec.)
O=C(Nc1ccc(Cl)c(C(F)(F)F)c1)Nc1cccc2ccc(O)c(F)c12 [Example 1-34]	228 °C
C=CCOc1ccc2cccc(NC(=O)Nc3ccc(Cl)c(C(F)(F)F)c3)c2c1 [Example 1-164]	183 to 184 °C
O=C(Nc1ccc(Oc2ccc(Cl)cc2)cc1)Nc1c(Cl)cc(Cl)c2ccc(O)cc12 [Example 4-9]	230 °C
O=C(Nc1ccc(Cc2ccccc2)cc1)Nc1c(Cl)cc(Cl)c2ccc(O)cc12 [Example 4-14]	230 °C (dec.)
O=C(Nc1cccc(-c2ccc(C(=O)O)cc2)c1)Nc1c(Cl)cc(Cl)c2ccc(O)cc12 [Example 4-11]	247 °C (dec.)
CN(C)c1ccc(NC(=O)Nc2c(Cl)cc(Cl)c3ccc(O)cc23)cc1 [Example 1-32]	192 °C (dec.)
CC(=O)Oc1ccc2c(Cl)cc(Cl)c(NC(=O)Nc3cnc4ccccc4c3)c2c1 [Example 3-16]	205 °C (dec.)
CS(=O)(=O)Nc1ccc2cccc(NC(=O)Nc3ccc(Cl)c(C(F)(F)F)c3)c2c1 [Example 10-1, N-{8-[({[4-Chloro-3-(trifluoromethyl)phenyl]amino}carbonyl)amino]-2-naphthyl}methanesulfonamide]	225 to 226 °C
O=C(Nc1cccc(-c2ccccc2Cl)c1)Nc1c(Cl)cc(Cl)c2ccc(O)cc12 [Example 4-3]	228 to 232 °C
Cc1cc(NC(=O)Nc2c(Cl)cc(Cl)c3ccc([O-])cc23)ccc1Cl.[K+]	190 °C
CC(=O)Oc1ccc2c(Br)cc(Br)c(NC(=O)Nc3cccc(-c4ccccc4)c3)c2c1 [Example 3-2]	235 °C (dec.)
O=C(Nc1cccc2c1C(=O)c1ccccc1-2)Nc1c(Cl)cc(Cl)c2ccc([O-])cc12.[K+]	195 °C
O=C(Nc1cccc(-c2ccc(Cl)c(F)c2)c1)Nc1c(Cl)cc(Cl)c2ccc([O-])cc12.[K+]	174 °C (dec.)
COc1cccc(-c2cccc(NC(=O)Nc3c(Cl)cc(Cl)c4ccc([O-])cc34)c2)c1.[K+]	206 °C (dec.)
CC(=O)Oc1ccc2c(Cl)cc(Cl)c(NC(=O)Nc3ccc(F)c(F)c3)c2c1 [Example 3-14]	226 °C (dec.)
O=C(Nc1ccc(C(F)(F)F)cc1)Nc1c(Cl)cc(Cl)c2ccc(O)cc12 [Example 1-23]	268 to 271 °C
O=C(Nc1ccc(Cl)cc1)Nc1c(Cl)cc(Cl)c2ccc(O)cc12 [Example 1-21]	253 to 255 °C
O=C(Nc1ccc(Cl)c(C(F)(F)F)c1)Nc1c(Cl)ccc2ccc(O)cc12 [Example 1-8]	260 °C (dec.)
O=C(Nc1ccc(Cl)c(C(F)(F)F)c1)Nc1c(Br)cc(Br)c2ccc(O)cc12 [Example 1-4]	242 to 243 °C
CN(C(=O)NCc1ccc(Br)cc1)c1cccc2ccc(O)cc12 [Example 1-78]	194 °C
O=C(Cc1cccc2ccc(O)cc12)Nc1ccc(Cl)c(C(F)(F)F)c1 [Example 11-1, N-[4-Chloro-3-(trifluoromethyl)phenyl]-2-(7-hydroxy-1-naphthyl)acetamide]	162 °C
CC1COC(c2cccc(NC(=O)Nc3c(Cl)ccc4ccc(O)cc34)c2)=N1 (stereo not shown) [Example 5-2]	162 °C (dec.)

SMILES	melting point
CC(C)(C)c1cc(NC(=O)Nc2c(Br)cc(Br)c3ccc(O)cc23)no1 [Example 5-1, N-(5-tert-Butyl-3-isoxazolyl)-N′-(2,4-dibromo-7-hydroxy-1-naphthyl)urea]	214.5 °C
O=C(Nc1ccc(Cl)c(C(F)(F)F)c1)Nc1c(Cl)cc(Cl)c2ccc([O-])cc12.[K+]	150 °C (dec.)
O=C(Nc1ccc(Cl)c(C(F)(F)F)c1)Nc1c(Cl)cc(CO)c2ccc(O)cc12 [Example 1-82]	210 °C
O=C(Nc1ccc(N2CCOCC2)c(Cl)c1)Nc1c(Cl)cc(Cl)c2ccc([O-])cc12.[K+]	188 °C
O=C(Nc1ccc2c(c1)CCCC2=O)Nc1c(Cl)cc(Cl)c2ccc(O)cc12 [Example 4-40]	230 °C (dec.)
O=C(Nc1cccc2c1C(=O)c1ccccc1-2)Nc1c(Cl)cc(Cl)c2ccc(O)cc12 [Example 4-37]	> 250 °C
COc1cccc(NC(=O)Nc2c(Cl)cc(Cl)c3ccc(O)cc23)c1 [Example 1-11]	223 to 226 °C
O=C(Nc1ccc2c(c1)C(=O)c1ccccc1-2)Nc1c(Cl)cc(Cl)c2ccc([O-])cc12.[K+]	200 °C
O=C(Nc1cccc(-c2ccc(Cl)c(F)c2)c1)Nc1c(Cl)cc(Cl)c2ccc(O)cc12 [Example 4-19]	241 °C (dec.)
O=C(NCc1ccc(Br)cc1)Nc1cccc2ccc([O-])c(F)c12.[K+]	185 °C
O=C(Nc1cccc(Oc2ccccc2)c1)Nc1c(Cl)cc(Cl)c2ccc(O)cc12 [Example 4-15]	226 °C (dec.)
O=C(NCc1cccc(F)c1)Nc1c(Cl)cc(Cl)c2ccc(O)cc12 [Example 1-30]	225 to 228 °C
COc1cccc(-c2cccc(NC(=O)Nc3c(Cl)cc(Cl)c4ccc(O)cc34)c2)c1 [Example 4-17]	246 °C (dec.)
CCOC(=O)c1cccc(NC(=O)Nc2c(Cl)cc(Cl)c3ccc(O)cc23)c1 [Example 1-12]	234 to 236 °C
O=C(Nc1ccc(Cl)c(C(F)(F)F)c1)Nc1cccc2ccc(NCc3ccccc3)cc12 [Example 1-75]	193 to 194 °C
Cc1ccc(NC(=O)Nc2c(Cl)cc(Cl)c3ccc(O)cc23)cc1C [Example 4-12]	239 °C (dec.)
O=C(NCc1cccc(F)c1)Nc1c(Br)cc(Br)c2ccc(O)cc12 [Example 1-33]	215 to 218 °C
O=C(Nc1c(Cl)cc(Cl)c2ccc(O)cc12)NC1CCCc2ccccc21 (stereo not shown) [Example 4-13]	238 °C (dec.)
Cc1cc(Cl)c(NC(=O)Nc2ccc(Cl)c(C(F)(F)F)c2)c2cc(O)ccc12 [Example 1-83]	254 °C
O=C(Nc1ccc(F)c(F)c1)Nc1c(Cl)cc(Cl)c2ccc(O)cc12 [Example 4-38]	244 °C (dec.)
O=C(Nc1cccc(Cl)c1)Nc1c(Cl)ccc2ccc(O)cc12 [Example 1-2]	242 to 243 °C
COc1ccc(NC(=O)Nc2c(Cl)cc(Cl)c3ccc(O)cc23)cc1F [Example 4-41]	235 to 238 °C (dec.)
O=C(Nc1ccc2c(c1)C(=O)OC2)Nc1c(Cl)cc(Cl)c2ccc(O)cc12 [Example 4-35]	290 to 291 °C (dec.)
O=C(Nc1ccc(F)cc1Cl)Nc1c(Cl)cc(Cl)c2ccc(O)cc12 [Example 4-16]	298 °C (dec.)
CCOC(=O)c1cccc(NC(=O)Nc2c(Br)cc(Br)c3ccc(O)cc23)c1 [Example 1-17]	193 to 196 °C
COc1ccccc1NC(=O)Nc1c(Br)cc(Br)c2ccc(O)cc12 [Example 1-15]	228 to 230 °C
